The results in this text go back to patent publication EP0992240A1, “THERAPEUTIC AGENT FOR ERECTION FAILURE” (MOCHIDA PHARMACEUTICAL CO., LTD., priority 1997, dated 1998).

In one assay the test system is PDE type I. As to the kind of experiment: PDE inhibiting activity, type I. Type of assay: biochemical, dog. As to conditions: PDE purified from canine aorta; 1 µM substrate cGMP or cAMP; read-out: Inhibition Activity IC50 (µM) Type I. How it is done:
On the basis of the method of Lugnier et al. (Biochem. Pharmacol., 35, 1743-1751, 1986), PDE was purified from the aorta in a dog. The canine aorta was minced and homogenized with a Waring Blender and a glass homogenizer in six volumes of a Tris-HCl buffer solution (pH 7.5, 20 mM) containing 2 mM magnesium acetate, 5 mM ethylenediaminetetraacetic acid (EDTA), 100 µg/mL of phenylmethylsulforyl fluoride and 15 mM 2-mercaptoethanol (2-ME), and centrifuged at 1200 x g for 30 min. The supernatant was separated and salted out with ammonium sulfate which was added to 45% saturation. The resulting precipitated fraction was resuspended in a Tris-HCl buffer solution (pH 7.5, 20 mM) containing 2 mM magnesium acetate and 1 mM 2-ME, dialyzed overnight and applied to a DEAE-trisacryl column (DEAE […] M:IBF). By elution with a sodium chloride gradient (0 - 0.4 M), PDE types V and III were separated from the other isozymes. The supernatant fraction of 45% saturated ammonium sulfate was further mixed with ammonium sulfate to 65% saturation and salted out. The resulting precipitated fraction was similarly applied to the DEAE-trisacryl column and eluted by a sodium chloride gradient (0 - 0.4 M) so as to separate PDE type I.
The thus obtained PDE types V, III and I were measured for their activity in accordance with the method of Thompson et al. (Adv. Cyclic Nucleotide Res., 10, 69-72, 1979) and the method of Wells et al. (Biochim. Biophys. Acta, 384, 430-443, 1975). Specifically, a purified PDE sample was added to 50 mM Tris-HCl buffer solution (pH 7.5) containing 1 µM of substrate cGMP or cAMP (containing tritium-labelled cGMP or cAMP), 1 mM EGTA and 2 mM magnesium acetate. For PDE activity measurement, enzymatically produced 5' GMP or 5' AMP was further hydrolyzed into guanosine or adenosine with snake venom and separated from the substrate by means of an ion-exchange resin (Dowex 1-X2), followed by measuring with a scintillation counter. The activity of each test compound was determined as a percentage of the PDE activity measured when it was added as a dimethyl sulfoxide solution (DMSO) and its IC50 (50% inhibition concentration) was calculated by the probit method. The final concentration of DMSO was adjusted to be no more than 2% in consideration of the effect on PDE activity.

The target in the next assay is T1, PDE type V (Canis lupus familiaris, UniProt O77746).
T1 construct: By elution with a sodium chloride gradient (0 - 0.4 M), PDE types V and III were separated from the other isozymes; from tissue; host or cells: canine aorta
As to the kind of experiment: PDE inhibiting activity, type V. Type of assay: biochemical, dog. As to conditions: PDE purified from canine aorta; 1 µM substrate cGMP or cAMP; read-out: Inhibition Activity IC50 (µM) Type V.

A value given as a limit tells only on which side of the number the result lay.

Protocol for PDE type V: The canine aorta was minced and homogenized with a Waring Blender and a glass homogenizer in six volumes of a Tris-HCl buffer solution (pH 7.5, 20 mM) containing 2 mM magnesium acetate, 5 mM ethylenediaminetetraacetic acid (EDTA), 100 µg/mL of phenylmethylsulforyl fluoride and 15 mM 2-mercaptoethanol (2-ME), and centrifuged at 1200 x g for 30 min. […] By elution with a sodium chloride gradient (0 - 0.4 M), PDE types V and III were separated from the other isozymes. […] The resulting precipitated fraction was similarly applied to the DEAE-trisacryl column and eluted by a sodium chloride gradient (0 - 0.4 M) so as to separate PDE type I.
Specifically, a purified PDE sample was added to 50 mM Tris-HCl buffer solution (pH 7.5) containing 1 µM of substrate cGMP or cAMP (containing tritium-labelled cGMP or cAMP), 1 mM EGTA and 2 mM magnesium acetate. For PDE activity measurement, enzymatically produced 5' GMP or 5' AMP was further hydrolyzed into guanosine or adenosine with snake venom and separated from the substrate by means of an ion-exchange resin (Dowex 1-X2), followed by measuring with a scintillation counter. […] The final concentration of DMSO was adjusted to be no more than 2% in consideration of the effect on PDE activity.

Turning to `O=c1c(Cc2ccccc2)cn2c3cc(Br)ccc3c3cc(O)cc1c32` [Example 40, 5-benzyl-9-bromo-2-hydroxy-4H-pyrido[3,2,1-jk]carbazol-4-one], the figures for the IC50 in the assay with PDE type I and on PDE type V were over 30 µM and 0.009 µM, respectively. Turning to `COc1cc2c(=O)c(C)cn3c4ccc(Br)cc4c(c1)c23` [Example 13, 10-bromo-2-methoxy-5-methyl-4H-pyrido[3,2,1-jk]carbazol-4-one], the IC50 was over 100 µM in the assay on PDE type I and 0.1 µM at PDE type V. For `O=c1ccn2c3ccc(Cl)cc3c3cc(Cl)cc1c32` [Example 48, 2,10-dichlor-4H-pyrido[3,2,1-jk]carbazol-4-one], the IC50 in the assay on PDE type I is over 30 µM. As to `CCCC(=O)COc1cc2c(=O)ccn3c4ccc(Br)cc4c(c1)c23` [Example 29, 10-bromo-2-(2-oxopentyloxy)-4H-pyrido[3,2,1-jk]carbazol-4-one], the results for the IC50 with PDE type I and at PDE type V were over 30 µM and 0.0047 µM, respectively. The like results for `Cc1cn2c3ccc(Br)cc3c3cc(O)cc(c1=O)c32` [Example 14, 10-bromo-2-hydroxy-5-methyl-4H-pyrido[3,2,1-jk]carbazol-4-one] were, in that order, over 300 µM and 0.1 µM. Regarding `CC(C)(C)OC(=O)COc1cc2c(=O)c(Cc3cccnc3)cn3c4cc(Br)ccc4c(c1)c23` [Example 32, 9-bromo-2-t-butoxycarbonylmethyloxy-5-(3-pyridylmethyl)-4H-pyrido[3,2,1-jk]carbazol-4-one], the values for the IC50 in the assay on PDE type I and on PDE type V were over 30 µM and 0.091 µM, respectively. The like results for `O=c1ccn2c3ccc(Br)cc3c3cc(OCc4ncon4)cc1c32` [Example 27, 10-bromo-2-(1,2,4-oxadiazol-3-yl)methyloxy-4H-pyrido[3,2,1-jk]carbazol-4-one] were, in that order, over 30 µM and 0.021 µM. `CC(C)OC(=O)COc1cc2c(=O)c(Cc3cccnc3)cn3c4ccc(Br)cc4c(c1)c23` [Example 4, 10-bromo-2-i-propoxycarbonylmethyloxy-5-(3-pyridylmethyl)-4H-pyrido[3,2,1-jk]carbazol-4-one]: the IC50 in the assay on PDE type I is over 30 µM; at PDE type V it was 0.0038 µM.

In the case of `CC(=O)Oc1cc2c(=O)c(Cc3cccnc3)cn3c4ccccc4c(c1)c23` [Example 42, 2-acetoxy-5-(3-pyridylmethyl)-4H-pyrido[3,2,1-jk]carbazol-4-one], the IC50 was over 30 µM with PDE type I and 0.2 µM on PDE type V. Consider `CCOC(=O)COc1cc2c(=O)c(Cc3cccnc3)cn3c4ccc(Br)cc4c(c1)c23` [Example 5, 10-bromo-2-ethoxycarbonylmethyloxy-5-(3-pyridylmethyl)-4H-pyrido[3,2,1-jk]carbazol-4-one], for which the figures for the IC50 in the assay on PDE type I and on PDE type V were over 30 µM and 0.0055 µM, respectively. The like results for `CC(C)(C)OC(=O)COc1cc2c(=O)ccn3c4ccc(Br)cc4c(c1)c23` [Example 21, 10-bromo-2-t-butoxycarbonylmethyloxy-4H-pyrido[3,2,1-jk]carbazol-4-one] were, in that order, over 30 µM and 0.0009 µM. For the molecule `COc1cc2c(=O)ccn3c4ccc(Br)cc4c(c1)c23` [Example 19, 10-bromo-2-methoxy-4H-pyrido[3,2,1-jk]carbazol-4-one], the results for the IC50 in the assay on PDE type I and at PDE type V were over 10 µM and 0.05 µM, respectively.

Take `O=c1c(Cc2cccnc2)cn2c3ccc(Br)cc3c3cc(O)cc1c32` [Example 2, 10-bromo-2-hydroxy-5-(3-pyridylmethyl)-4H-pyrido[3,2,1-jk]carbazol-4-one]: the IC50 with PDE type I was over 30 µM; on PDE type V it was 0.1 µM. Taken in the same sequence, the figures for `O=c1ccn2c3ccc(Br)cc3c3cc(OCc4cccnc4)cc1c32` [Example 25, 10-bromo-2-(3-pyridylmethyloxy)-4H-pyrido[3,2,1-jk]carbazol-4-one] were over 100 µM and 0.011 µM. Turning to `O=c1c(Cc2cccnc2)cn2c3ccc(Br)cc3c3cc(OCc4cccnc4)cc1c32` [Example 10, 10-bromo-5-(3-pyridylmethyl)-2-(3-pyridylmethyloxy)-4H-pyrido[3,2,1-jk]carbazol-4-one], the figures for the IC50 in the assay on PDE type I and on PDE type V were over 30 µM and 0.059 µM, respectively.

For `O=c1ccn2c3ccc(Br)cc3c3cc(O)cc1c32` [Example 20, 10-bromo-2-hydroxy-4H-pyrido[3,2,1-jk]carbazol-4-one], the results for the IC50 with PDE type I and on PDE type V were over 100 µM and 0.03 µM, respectively. `CCCC(=O)COc1cc2c(=O)c(C)cn3c4ccc(Br)cc4c(c1)c23` [Example 18, 10-bromo-2-(2-oxopentyloxy)-5-methyl-4H-pyrido[3,2,1-jk]carbazol-4-one]: the figures for the IC50 with PDE type I and at PDE type V were over 30 µM and 0.015 µM, respectively.

In the case of `O=c1c(Cc2cccnc2)cn2c3ccc(Br)cc3c3cc(OCc4ccccc4)cc1c32` [Example 11, 2-benzyloxy-10-bromo-5-(3-pyridylmethyl)-4H-pyrido[3,2,1-jk]carbazol-4-one], the IC50 in the assay with PDE type I was over 30 µM; on PDE type V it was 0.11 µM. The like results for `O=c1ccn2c3ccc(Br)cc3c3cc(OCc4ccccc4)cc1c32` [Example 26, 2-benzyloxy-10-bromo-4H-pyrido[3,2,1-jk]carbazol-4-one] were, in that order, over 30 µM and 0.01 µM.

In the case of `COc1cc2c(=O)c(Cc3ccccc3)cn3c4cc(Br)ccc4c(c1)c23` [Example 39, 5-benzyl-9-bromo-2-methoxy-4H-pyrido[3,2,1-jk]carbazol-4-one], the figures for the IC50 in the assay with PDE type I and at PDE type V were over 30 µM and 0.026 µM, respectively. On to `O=c1c(Cc2cccnc2)cn2c3ccccc3c3cc(O)cc1c32` [Example 41, 2-hydroxy-5-(3-pyridylmethyl)-4H-pyrido[3,2,1-jk]carbazol-4-one], for which the values for the IC50 in the assay with PDE type I and at PDE type V were 48 µM and 0.36 µM, respectively. The like results for `CCOC(=O)COc1cc2c(=O)ccn3c4ccc(Br)cc4c(c1)c23` [Example 23, 10-bromo-2-ethoxycarbonylmethyloxy-4H-pyrido[3,2,1-jk]carbazol-4-one] were, in that order, over 30 µM and 0.002 µM. In the case of `O=c1c(Cc2cccnc2)cn2c3cc(Br)ccc3c3cc(OCc4cncc(CO)c4)cc1c32` [Example 36, 9-bromo-2-(5-hydroxymethyl-3-pyridylmethyloxy)-5-(3-pyridylmethyl)-4H-pyrido[3,2,1-jk]carbazol-4-one], the IC50 in the assay with PDE type I was over 30 µM; at PDE type V, 0.021 µM.

As to `CC(C)OC(=O)COc1cc2c(=O)ccn3c4ccc(Br)cc4c(c1)c23` [Example 22, 10-bromo-2-i-propoxycarbonylmethyloxy-4H-pyrido[3,2,1-jk]carbazol-4-one], the IC50 in the assay with PDE type I is over 30 µM; on PDE type V, 0.0008 µM. `CC(=O)OCc1cncc(COc2cc3c(=O)c(Cc4cccnc4)cn4c5cc(Br)ccc5c(c2)c34)c1` [Example 35, 2-(5-acetoxymethyl-3-pyridylmethyloxy)-9-bromo-5-(3-pyridylmethyl)-4H-pyrido[3,2,1-jk]carbazol-4-one]: the IC50 in the assay with PDE type I is over 30 µM; at PDE type V, 0.088 µM. Take `CC(=O)Oc1ccc2c3cccc4c(=O)c(Cc5cccnc5)cn(c2c1)c43` [Example 45, 9-acetoxy-5-(3-pyridylmethyl)-4H-pyrido[3,2,1-jk]carbazol-4-one]: the results for the IC50 in the assay with PDE type I and on PDE type V were over 30 µM and 0.06 µM, respectively. In the case of `O=C(O)COc1cc2c(=O)c(Cc3cccnc3)cn3c4cc(Br)ccc4c(c1)c23` [Example 33, 9-bromo-2-carboxymethyloxy-5-(3-pyridylmethyl)-4H-pyrido[3,2,1-jk]carbazol-4-one], the IC50 in the assay with PDE type I was over 30 µM; at PDE type V, 0.0032 µM. For the molecule `Cc1cn2c3ccc(Br)cc3c3cc(OCC(=O)OC(C)C)cc(c1=O)c32` [Example 16], the IC50 in the assay with PDE type I was over 30 µM; on PDE type V, 0.0017 µM. With `O=C(O)COc1cc2c(=O)ccn3c4ccc(Br)cc4c(c1)c23` [Example 24, 10-bromo-2-carboxymethyloxy-4H-pyrido[3,2,1-jk]carbazol-4-one], the IC50 was over 30 µM in the assay on PDE type I and 0.19 µM on PDE type V. For `CC(=O)Oc1cc2c(=O)ccn3c4ccc(Br)cc4c(c1)c23` [Example 28, 2-acetoxy-10-bromo-4H-pyrido[3,2,1-jk]carbazol-4-one], the 50% inhibitory concentration (IC50) is over 100 µM in the assay with PDE type I and 0.1 µM on PDE type V. The like results for `COc1cc2c(=O)c(Cc3cccnc3)cn3c4cc(Br)ccc4c(c1)c23` [Example 30, 9-bromo-2-methoxy-5-(3-pyridylmethyl)-4H-pyrido[3,2,1-jk]carbazol-4-one] were, in that order, over 30 µM and 0.0047 µM.
